Data from patent publication US20260374766A1, “METHODS FOR TREATING CANCER” (Antares Therapeutics, Inc., priority 2022, published 2026).
pIC50, pKd: −log10 of the molar value. Like-named read-outs stand apart in the source and are kept apart here.

Assays:
[1] = target: T1, p53 Y220C mutant protein (amino acid residues 94-293) (Homo sapiens, UniProt P04637, Y220C); experiment: Surface Plasmon Resonance (SPR) assay, Kd_kinetic; type: binding; conditions: SPR; p53 Y220C; read-out: SPR P53 Y220C KD kinetic
T1 construct: p53 Y220C mutant protein (amino acid residues 94-293)
T1 sequence (P04637 94-293, stated change not applied): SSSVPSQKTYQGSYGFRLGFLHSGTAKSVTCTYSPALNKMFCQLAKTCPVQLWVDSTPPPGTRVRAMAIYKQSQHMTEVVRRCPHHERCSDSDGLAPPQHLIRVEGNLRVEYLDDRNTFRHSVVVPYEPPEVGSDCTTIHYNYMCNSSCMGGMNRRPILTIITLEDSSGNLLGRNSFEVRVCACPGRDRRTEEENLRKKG
How it was run: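 Binding measured by SPR on a Biacore 8K in running buffer of 50 mM Tris pH 7.5, 100 mM NaCl, 1 mM DTT, 0.01% Brij35, 0.05% Tween-20, 1% DMSO.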

p53 Y220C = p53 Y220C (Homo sapiens, UniProt P04637, Y220C); experiment: Luciferase Reporter Assay (Luc), p53 response element, NClH1299 cells with inducible p53 Y220C; type: cell-based; conditions: 6 hour; for AC50: read-out: Luc P53 Y220C AC50
How it was run: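 Doxycycline (0.5 ug/mL, 24 h) induces the mutant before a 6-hour compound treatment. Reporter activity is then quantified by One-Glo luminescence.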

NUGC3 p53 Y220C = experiment: Cell Proliferation Assay (CellTiter-Glo, CTG), NUGC3 p53 Y220C; type: cell-based; conditions: Homo sapiens, NUGC-3, 120 h, NUGC3 cells, 5 days
How it was run: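 NClH1299 lines stably transduced with Tet-inducible p53 Y220C or R273H, plus NUGC3, were treated with compound for 5 days at 250-500 cells/well. IC50 derived from CellTiter-Glo luminescent signal after 10 min room-temperature incubation.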

H1299 p53 Y220C = experiment: Cell Proliferation Assay (CellTiter-Glo, CTG), H1299 p53 Y220C (NClH1299-inducible p53 Y220C); type: cell-based; conditions: Homo sapiens, NCI-H1299, 120 h, NClH1299-inducible p53 Y220C cells, 5 days
How it was run: (§1)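 Cells seeded at 250-500 per well and exposed to compound for 5 days. Viability read by CellTiter-Glo luminescence after 10 min at room temperature; IC50 calculated. H1299 lines carry Tet-One inducible p53 mutant constructs introduced by lentiviral transduction.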

H1299 p53 R273H = experiment: Cell Proliferation Assay (CellTiter-Glo, CTG), H1299 p53 R273H (NClH1299-inducible p53 R273H); type: cell-based; conditions: Homo sapiens, NCI-H1299, 120 h, NClH1299-inducible p53 R273H cells, 5 days
How it was run: as §1

[2] = luciferase reporter, NClH1299 inducible p53 Y220C
[3] = NClH1299 cells with inducible p53 Y220C
[4] = NClH1299 cells with inducible p53 Y220C, 10 uM tool compound as positive control

Row | Structure (SMILES) | pKd [1] | AC50 (p53 Y220C; [2]) [nM] | Emax (p53 Y220C; [2]) [%] | pIC50 (H1299 p53 Y220C; CellTiter-Glo) | pIC50 (H1299 p53 R273H; CellTiter-Glo) | AC50 (p53 Y220C; [3]) [nM] | Emax (p53 Y220C; [4]) [%] | pIC50 (H1299 p53 Y220C) | pIC50 (H1299 p53 R273H) | pIC50 (NUGC3 p53 Y220C; CellTiter-Glo) | pIC50 (NUGC3 p53 Y220C)
1 | CN1CC[C@@H](Nc2cccn3c(SC(F)(F)F)c(C#CCNc4ccc(C(=O)NC[C@@H]5COCCO5)cc4)cc23)[C@@H](F)C1 [Example 441] | > 8.00 | < 750 | > 90 | > 6.12 | ≤ 5.00 |  |  |  |  | > 6.12 | 
2 | CNC(=O)c1ccc(NCC#Cc2cc3c(N[C@@H]4CCN(C)C[C@@H]4F)nccn3c2SC(F)(F)F)c(O)c1 [Example 446, 4-{[3-(1-{[(3S,4R)-3-fluoro-1-methylpiperidin-4-yl]amino}-6-[(trifluoromethyl)sulfanyl]pyrrolo[1,2-a]pyrazin-7-yl)prop-2-yn-1-yl]amino}-3-hydroxy-N-methylbenzamide] | > 8.00 | < 750 | > 90 | > 6.12 | ≤ 5.00 |  |  |  |  | > 6.12 | 
3 | CN1CC[C@@H](Nc2cccn3c(SC(F)(F)F)c(C#CCNc4ccc(C(=O)NCC5COC5)cc4)cc23)[C@@H](F)C1 [Example 447] | > 8.00 | < 750 | > 90 | > 6.12 | ≤ 5.00 |  |  |  |  | > 6.12 | 
4 | CNC(=O)c1ccc(OC)c(NCC#Cc2cc3c(N[C@@H]4CCN(C[C@H](C)O)C[C@@H]4F)nccn3c2SC(F)(F)F)c1 [Example 448] | > 8.00 | < 750 | > 90 | > 6.12 | 5.10 to 5.30 |  |  |  |  | > 6.12 | 
5 | CN1CC[C@@H](Nc2cccn3c(SC(F)(F)F)c(C#CCNc4ccc(P(C)(C)=O)c5c4OCC5)cc23)[C@@H](F)C1 [Example 449] | > 8.00 | < 750 | > 90 | > 6.12 | 5.10 to 5.30 |  |  |  |  | > 6.12 | 
6 | CN1CC[C@@H](Nc2cccn3c(SC(F)(F)F)c(C#CCNc4ccc(P(C)(C)=O)c5ccoc45)cc23)[C@@H](F)C1 [Example 452] | > 8.00 | < 750 | > 90 | > 6.12 | > 5.30 |  |  |  |  | > 6.12 | 
7 | CN1CC[C@@H](Nc2cccn3c(SC(F)(F)F)c(C#CCNc4ccc(C(=O)NC[C@@H]5CCO5)cc4)cc23)[C@@H](F)C1 [Example 453] | > 8.00 | < 750 | > 90 | > 6.12 | ≤ 5.00 |  |  |  |  | > 6.12 | 
8 | CNC(=O)c1ccc(NCC#Cc2cc3c(N[C@@H]4CCNC[C@@H]4F)cccn3c2SC(F)(F)F)c(O)c1 [Example 455, 4-{[3-(8-{[(3S,4R)-3-fluoropiperidin-4-yl]amino}-3-[(trifluoromethyl)sulfanyl]indolizin-2-yl)prop-2-yn-1-yl]amino}-3-hydroxy-N-methylbenzamide] | > 8.00 |  |  |  |  | < 750 | 80 to 90 | > 6.12 | 5.10 to 5.30 |  | > 6.12
9 | CN1CC[C@@H](Nc2cccn3c(SC(F)(F)F)c(C#CCNc4ccc(C(=O)NC[C@H](O)CO)cc4)cc23)[C@@H](F)C1 [Example 460] | > 8.00 |  |  |  |  | < 750 | > 90 | > 6.12 | ≤ 5.00 |  | > 6.12
10 | CNC(=O)c1ccc(OC2COC2)c(NCC#Cc2cc3c(N[C@@H]4CCNC[C@@H]4F)cccn3c2SC(F)(F)F)n1 [Example 463] | > 8.00 |  |  |  |  | < 750 | > 90 | > 6.12 | ≤ 5.00 |  | > 6.12

More lines, main results first:

Row | pKd [1] | AC50 (p53 Y220C; [2]) [nM] | Emax (p53 Y220C; [2]) [%] | pIC50 (H1299 p53 Y220C; CellTiter-Glo) | pIC50 (H1299 p53 R273H; CellTiter-Glo) | AC50 (p53 Y220C; [3]) [nM] | Emax (p53 Y220C; [4]) [%] | pIC50 (H1299 p53 Y220C) | pIC50 (H1299 p53 R273H) | Structure (SMILES) | pIC50 (NUGC3 p53 Y220C; CellTiter-Glo) | pIC50 (NUGC3 p53 Y220C)
11 | > 8.00 | < 750 | 80 to 90 | > 6.12 | 5.10 to 5.30 |  |  |  |  | [2H]C([2H])([2H])Oc1cc(C(=O)NC)ccc1NCC#Cc1cc2c(N[C@@H]3CCN(C)C[C@@H]3F)cccn2c1SC(F)(F)F [Example 442, 4-((3-(8-(((3S,4R)-3-fluoro-1-methylpiperidin-4-yl)amino)-3-((trifluoromethyl)thio)indolizin-2-yl)prop-2-yn-1-yl)amino)-3-(methoxy-d3)-N-methylbenzamide] | > 6.12 | 
12 | > 8.00 | < 750 | > 90 | > 6.12 | ≤ 5.00 |  |  |  |  | CNC(=O)c1ccc(OC)c(NCC#Cc2cc3c(N[C@@H]4CN(C)C[C@@H]4F)cccn3c2SC(F)(F)F)c1 [Example 444] | > 6.12 | 
13 | > 8.00 | < 750 | > 90 | > 6.12 | ≤ 5.00 |  |  |  |  | COc1nc(P(C)(C)=O)ncc1NCC#Cc1cc2c(N[C@@H]3CCN(C)C[C@@H]3F)cccn2c1SC(F)(F)F [Example 445, 2-(3-{[2-(dimethylphosphoryl)-4-methoxypyrimidin-5-yl]amino}prop-1-yn-1-yl)-N-[(3S,4R)-3-fluoro-1-methylpiperidin-4-yl]-3-[(trifluoromethyl)sulfanyl]indolizin-8-amine] | > 6.12 | 
14 | > 8.00 | < 750 | > 90 | > 6.12 | ≤ 5.00 |  |  |  |  | CNC(=O)c1ccc(NCC#Cc2cc3c(N[C@@H]4CCN(C)C[C@@H]4F)cccn3c2SC(F)(F)F)c(C(F)F)c1 [Example 450, 3-(difluoromethyl)-4-{[3-(8-{[(3S,4R)-3-fluoro-1-methylpiperidin-4-yl]amino}-3-[(trifluoromethyl)sulfanyl]indolizin-2-yl)prop-2-yn-1-yl]amino}-N-methylbenzamide] | > 6.12 | 
15 | > 8.00 | < 750 | > 90 | > 6.12 | ≤ 5.00 |  |  |  |  | COc1cc(C(=O)O)ccc1NCC#Cc1cc2c(N[C@@H]3CCN(C)C[C@@H]3F)cccn2c1SC(F)(F)F [Example 451] | > 6.12 | 
16 | > 8.00 |  |  |  |  | < 750 | > 90 | > 6.12 | ≤ 5.00 | COc1ccc(C(=O)N[C@@H](C)[C@H](C)O)cc1NCC#Cc1cc2c(N[C@@H]3CCN(C)C[C@@H]3F)cccn2c1SC(F)(F)F [Example 456] |  | > 6.12
17 | > 8.00 |  |  |  |  | < 750 | > 90 | > 6.12 | 5.00 to 5.10 | CN1CC[C@@H](Nc2cccn3c(SC(F)(F)F)c(C#CCNc4ccc(C(=O)NCC(C)(C)O)cc4)cc23)[C@@H](F)C1 [Example 457] |  | > 6.12
18 | > 8.00 |  |  |  |  | < 750 | > 90 | > 6.12 | ≤ 5.00 | COc1ccc(C(=O)NC[C@@H](O)CO)cc1NCC#Cc1cc2c(N[C@@H]3CCN(C)C[C@@H]3F)cccn2c1SC(F)(F)F [Example 462] |  | > 6.12
19 | > 8.00 |  |  |  |  | < 750 | > 90 | > 6.12 | ≤ 5.00 | COc1cc(C(N)=O)ccc1NCC#Cc1cc2c(N[C@@H]3CCN(C)C[C@@H]3F)cccn2c1SC(F)(F)F [Example 464] |  | > 6.12
20 | > 8.00 |  |  |  |  | < 750 | > 90 | > 6.12 | ≤ 5.00 | CN1CC[C@@H](Nc2cccn3c(SC(F)(F)F)c(C#CCNc4ccc(C(=O)N[C@H]5C[C@@H](O)C5)cc4)cc23)[C@@H](F)C1 [Example 465] |  | > 6.12
21 | > 8.00 |  |  |  |  | < 750 | 80 to 90 | > 6.12 | ≤ 5.00 | CNC(=O)c1ccc(NCC#Cc2cc3c(N[C@@H]4CCN(C)C[C@@H]4F)cccn3c2SC(F)(F)F)c(Cl)c1 [Example 466, 3-chloro-4-{[3-(8-{[(3S,4R)-3-fluoro-1-methylpiperidin-4-yl]amino}-3-[(trifluoromethyl)sulfanyl]indolizin-2-yl)prop-2-yn-1-yl]amino}-N-methylbenzamide] |  | > 6.12
22 | > 8.00 |  |  |  |  | < 750 | > 90 | > 6.12 | 5.00 to 5.10 | COc1ccc(C(=O)N[C@H](C)[C@H](C)O)cc1NCC#Cc1cc2c(N[C@@H]3CCN(C)C[C@@H]3F)cccn2c1SC(F)(F)F [Example 468] |  | > 6.12
23 | > 8.00 |  |  |  |  | < 750 | > 90 | > 6.12 | 5.10 to 5.30 | CNC(=O)c1ccc(NCC#Cc2cc3c(N[C@@H]4CCN(C)C[C@@H]4F)cccn3c2SC(F)(F)F)c(O)c1 [Example 469, 4-{[3-(8-{[(3S,4R)-3-fluoro-1-methylpiperidin-4-yl]amino}-3-[(trifluoromethyl)sulfanyl]indolizin-2-yl)prop-2-yn-1-yl]amino}-3-hydroxy-N-methylbenzamide] |  | > 6.12
